Data taken from PubChem BioAssay AID248 (DTP/NCI, 2004).
Where “and” joins values, the source holds several entries; their conditions need not be identical. Equal values may be shown once. Toxic doses and inconclusive results are not listed. No stated cut-off is given here; in the data, active means T/C of 150% or more; inactive means T/C below 125%. Peptide text beside a SMILES is read from it. * marks the point of attachment. Cbz = O=C(OCc1ccccc1)*; Bn = c1ccc(C*)cc1

System: L1210 leukemia ip in BDF1 mice, survival T/C
Experiment: NCI In Vivo Anticancer Drug Screen. Data for tumor model L1210 Leukemia (intraperitoneal) in B6D2F1 (BDF1) mice
Conditions: endpoint: mean survival time, higher = longer survival
Summary of the method: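 Tumor was transplanted into mice, which were then dosed with test compound or vehicle alone. Survival was recorded for each group, and the treated figure was expressed relative to the control figure.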

[1] = dose: 100.0 mg/kg/injection, schedule: Q01DX001 (ip), vehicle: Klucel (hydroxypropylcellulose) (HPC)
[2] = dose: 100.0 mg/kg/injection, schedule: Q04DX003 (ip), vehicle: Klucel (hydroxypropylcellulose) (HPC)
[3] = dose: 200.0 mg/kg/injection, schedule: Q01DX001 (ip), vehicle: Klucel (hydroxypropylcellulose) (HPC)
[4] = dose: 200.0 mg/kg/injection, schedule: Q04DX003 (ip), vehicle: Klucel (hydroxypropylcellulose) (HPC)
[5] = dose: 400.0 mg/kg/injection, schedule: Q01DX001 (ip), vehicle: Klucel (hydroxypropylcellulose) (HPC)
[6] = dose: 400.0 mg/kg/injection, schedule: Q04DX003 (ip), vehicle: Klucel (hydroxypropylcellulose) (HPC)
[7] = dose: 100.0 mg/kg/injection, schedule: Q04DX002 (ip), vehicle: Klucel (hydroxypropylcellulose) (HPC)
[8] = dose: 200.0 mg/kg/injection, schedule: Q04DX002 (ip), vehicle: Klucel (hydroxypropylcellulose) (HPC)
[9] = dose: 400.0 mg/kg/injection, schedule: Q04DX002 (ip), vehicle: Klucel (hydroxypropylcellulose) (HPC)
[10] = dose: 100.0 mg/kg/injection, schedule: Q01DX009 (ip), vehicle: Klucel (hydroxypropylcellulose) (HPC)
[11] = dose: 200.0 mg/kg/injection, schedule: Q01DX009 (ip), vehicle: Klucel (hydroxypropylcellulose) (HPC)
[12] = dose: 400.0 mg/kg/injection, schedule: Q01DX009 (ip), vehicle: Klucel (hydroxypropylcellulose) (HPC)

Measured: T/C

CN(C)C(Cc1ccccc1)(C(=O)O)c1ccccc1 (stereo not given)
inactive: dose: 100.0 mg/kg/injection, schedule: Q01DX001 (ip), vehicle: saline 96 % of control | dose: 200.0 mg/kg/injection, schedule: Q01DX001 (ip), vehicle: saline 91 % of control | dose: 400.0 mg/kg/injection, schedule: Q01DX001 (ip), vehicle: saline 88 % of control

COc1cc(C(=O)O)ccc1OCCNS(C)(=O)=O
inactive: [1] 96 % of control | [2] 105 % of control | [3] 102 % of control | [4] 96 % of control | [5] 100 % of control | [6] 94 % of control

CC(=O)Nc1c(CCCCc2ccccc2)[nH]c(=O)[nH]c1=O
inactive: dose: 25.0 mg/kg/injection, schedule: Q01DX001 (ip), vehicle: Klucel (hydroxypropylcellulose) (HPC) 101 % of control | dose: 50.0 mg/kg/injection, schedule: Q01DX001 (ip), vehicle: Klucel (hydroxypropylcellulose) (HPC) 92 % of control | [1] 99 % of control and 101 % of control

CC(C)Oc1c(NCCO)c2cc(Cl)ccc2oc1=O
inactive: [7] 103 % of control | [8] 106 % of control | [9] 106 % of control

Cc1cc(N(c2c(Cl)c(Cl)c(NS(=O)(=O)c3ccccc3)c(Cl)c2Cl)S(=O)(=O)c2ccccc2)cc(C)c1N
inactive: [1] 98 % of control | [10] 100 % of control | [3] 95 % of control | [11] 95 % of control | [5] 90 % of control | [12] 94 % of control

CSC1SCC2C(=O)N(C)C(C(C)C)C(=O)OCC(NC(=O)c3cnc4ccccc4n3)C(=O)NC(C)C(=O)N(C)C1C(=O)N(C)C(C(C)C)C(=O)OCC(NC(=O)c1cnc3ccccc3n1)C(=O)NC(C)C(=O)N2C (stereo not given)
inactive: dose: 0.4 micrograms/kg/injection, schedule: Q01DX009 (ip), vehicle: saline with Tween-80 97 % of control | dose: 0.9 micrograms/kg/injection, schedule: Q01DX009 (ip), vehicle: saline with Tween-80 102 % of control | dose: 1.9 micrograms/kg/injection, schedule: Q01DX009 (ip), vehicle: saline with Tween-80 97 % of control | dose: 3.8 micrograms/kg/injection, schedule: Q01DX009 (ip), vehicle: saline with Tween-80 102 % of control | dose: 7.5 micrograms/kg/injection, schedule: Q01DX009 (ip), vehicle: saline with Tween-80 115 % of control | dose: 15.0 micrograms/kg/injection, schedule: Q01DX009 (ip), vehicle: saline with Tween-80 117 % of control

COc1ccc(C2CC(O)C3CCC2C3)cc1 (stereo not given)
inactive: [7] 93 % of control | [8] 97 % of control | [9] 93 % of control

COC(=O)C(CC(C)C)NC(=O)C(CSCc1ccccc1)NC(=O)OCc1ccccc1 (stereo not given) (Cbz-Cys(Bn)-Leu-OMe; configuration not given here)
inactive: dose: 100.0 mg/kg/injection, schedule: Q04DX003 (ip), vehicle: DMSO 102 % of control | dose: 200.0 mg/kg/injection, schedule: Q04DX003 (ip), vehicle: DMSO 104 % of control | dose: 400.0 mg/kg/injection, schedule: Q04DX003 (ip), vehicle: DMSO 96 % of control

O=C(O)c1ccncc1C(=O)O
inactive: dose: 50.0 mg/kg/injection, schedule: Q01DX001 (ip), vehicle: carboxymethylcellulose (CMC) 87 % of control | dose: 100.0 mg/kg/injection, schedule: Q01DX001 (ip), vehicle: carboxymethylcellulose (CMC) 90 % of control | dose: 200.0 mg/kg/injection, schedule: Q01DX001 (ip), vehicle: carboxymethylcellulose (CMC) 87 % of control

C=CCN(C=O)CC=C
inactive: dose: 100.0 mg/kg/injection, schedule: Q01DX009 (ip), vehicle: saline 101 % of control

Nc1nc2ncc(C(=O)O)nc2c(=O)[nH]1
inactive: dose: 50.0 mg/kg/injection, schedule: Q04DX003 (ip), vehicle: saline 98 % of control | dose: 100.0 mg/kg/injection, schedule: Q04DX003 (ip), vehicle: saline 97 % of control and 104 % of control | dose: 400.0 mg/kg/injection, schedule: Q04DX003 (ip), vehicle: saline 105 % of control

CN(C)C=NC1c2ccccc2CCc2ccccc21
inactive: [10] 98 % of control | [2] 104 % of control | [11] 97 % of control | [4] 91 % of control | [12] 100 % of control | [6] 94 % of control

O=c1ccc2ccccc2[nH]1
inactive: [1] 108 % of control | dose: 100.0 mg/kg/injection, schedule: Q01DX001 (ip), vehicle: other 105 % of control | [3] 111 % of control | dose: 200.0 mg/kg/injection, schedule: Q01DX001 (ip), vehicle: other 92 % of control | [5] 113 % of control

O=C1C(N2CCCCC2)=C(N2CC2)C(=O)C(N2CCCCC2)=C1N1CC1
inactive: dose: 0.39 mg/kg/injection, schedule: Q04DX003 (ip), vehicle: saline 94 % of control and 96 % of control | dose: 0.78 mg/kg/injection, schedule: Q04DX003 (ip), vehicle: saline 100 % of control and 103 % of control | dose: 1.56 mg/kg/injection, schedule: Q04DX003 (ip), vehicle: saline 103 % of control and 107 % of control | dose: 3.12 mg/kg/injection, schedule: Q04DX003 (ip), vehicle: saline 103 % of control and 107 % of control | dose: 6.25 mg/kg/injection, schedule: Q04DX003 (ip), vehicle: saline 96 % of control and 100 % of control | dose: 10.0 mg/kg/injection, schedule: Q01DX001 (ip), vehicle: saline 86 % of control | dose: 12.5 mg/kg/injection, schedule: Q04DX003 (ip), vehicle: saline 103 % of control and 122 % of control | dose: 20.0 mg/kg/injection, schedule: Q01DX001 (ip), vehicle: saline 99 % of control | dose: 35.0 mg/kg/injection, schedule: Q04DX003 (ip), vehicle: saline 101 % of control | dose: 40.0 mg/kg/injection, schedule: Q01DX001 (ip), vehicle: saline 93 % of control | dose: 55.0 mg/kg/injection, schedule: Q04DX003 (ip), vehicle: saline 90 % of control | dose: 80.0 mg/kg/injection, schedule: Q01DX001 (ip), vehicle: saline 108 % of control | dose: 80.0 mg/kg/injection, schedule: Q04DX003 (ip), vehicle: saline 88 % of control

Nc1nc(N)n(Cc2ccc3c(c2)OCO3)n1
inactive: dose: 100.0 mg/kg/injection, schedule: Q01DX001 (ip), vehicle: saline with Tween-80 106 % of control | dose: 100.0 mg/kg/injection, schedule: Q04DX003 (ip), vehicle: saline with Tween-80 104 % of control | dose: 200.0 mg/kg/injection, schedule: Q01DX001 (ip), vehicle: saline with Tween-80 104 % of control | dose: 200.0 mg/kg/injection, schedule: Q01DX009 (ip), vehicle: saline with Tween-80 87 % of control | dose: 200.0 mg/kg/injection, schedule: Q04DX003 (ip), vehicle: saline with Tween-80 101 % of control | dose: 400.0 mg/kg/injection, schedule: Q01DX001 (ip), vehicle: saline with Tween-80 108 % of control | dose: 400.0 mg/kg/injection, schedule: Q01DX009 (ip), vehicle: saline with Tween-80 101 % of control | dose: 400.0 mg/kg/injection, schedule: Q04DX003 (ip), vehicle: saline with Tween-80 102 % of control

N#CCN1C(=O)c2ccccc2S1(=O)=O
inactive: dose: 222.0 mg/kg/injection, schedule: Q01DX Z (ip), vehicle: methylcellulose (MC) 110 % of control | dose: 333.0 mg/kg/injection, schedule: Q01DX Z (ip), vehicle: methylcellulose (MC) 113 % of control | dose: 500.0 mg/kg/injection, schedule: Q01DX Z (ip), vehicle: methylcellulose (MC) 102 % of control
